Measurements reported in patent US6191288A, “Pyronin antibacterials, process and novel intermediates thereto” (Anadys Pharmaceuticals, Inc., priority 1999, dated 2001).
≈ marks a conversion by molar mass, not a printed value. Where two headings read alike, the source gives them in different places.

Assays:
[1] = tested on: E. coli; assay: Microdilution MIC, E. coli; assay type: cell-based; conditions: Escherichia coli
Protocol: (§1) Different dilutions are performed for natural product extracts.

[2] = molecular target: E. coli RNA polymerase (Escherichia coli, UniProt P0A8T7+P0A8V2); assay: In vitro transcription assay, E. coli RNA polymerase; assay type: biochemical; conditions: for Relative potency in the in vitro transcription assay using E. coli RNA polymerase: FIGS. 20a,b, comparison in words; for IC50: Table II, in vitro transcription, read-out: IC50 E. coli (source of polymerase) (converted)
Protocol: (§2) In vitro transcription reactions. [α-^32 P] UTP-incorporated RNA was synthesized in 50 μl reaction volumes containing transcription buffer (50 mM Tris-HCl, pH 8.0, 200 mM KCL, 10 mM MgCl2, 10 mM DTT and 1.5 μM BSA), […] of DNA template, 4 μM UTP containing 5 μl of [α-^32 P] UTP, 400 μM each of ATP, GTP, and CTP. After incubation for 60 minutes at 25 ° C., the reaction is terminated with 100 μl 10% TCA, which also recipitates the newly transcribed RNA.

[3] = molecular target: S. aureus RNAP (Staphylococcus aureus, UniProt P47768+Q2G0N5); assay: In vitro transcription assay, S. aureus RNAP; assay type: biochemical
Protocol: as §2

[4] = molecular target: Human RNAP (Homo sapiens, UniProt P24928+P30876); assay: biochemical; conditions: Table II, in vitro transcription; read-out: IC50 human pol II
Protocol: as §2

[5] = tested on: E. cloacae; assay: MIC, E. cloacae; assay type: cell-based; conditions: Enterobacter cloacae
Protocol: as §1

[6] = tested on: S. epidermidis; assay: MIC, S. epidermidis; assay type: cell-based; conditions: Staphylococcus epidermidis, MRSE, E-R
Protocol: as §1

[7] = tested on: S. aureus; assay: MBC, S. aureus; assay type: cell-based; conditions: Staphylococcus aureus, Table II
Text: (§3) The minimum bactericidal concentration (MBC) is defined as the concentration of antimicrobial agent from which no colonies grow on petri plates or in the medium. In practice, the MBC is arbitrarily defined as the concentration at which a 1000-fold reduction in colony forming units is observed with respect to the original inoculum (survival of 0. 1%). The broth dilution method consists of inoculating the wells from an MIC microliter plate using a 96-well inoculation grid into a fresh microliter plate containing 100 μl. Mueller-Hinton broth per well. The MBC plates are incubated at 37° C. for 16-20 hrs and the MBC values are determined.

[8] = tested on: S. pneumonia; assay: MIC, S. pneumonia; assay type: cell-based
Protocol: as §1

[9] = tested on: M. catarrhalis; assay: MIC, M. catarrhalis; assay type: cell-based; conditions: Moraxella catarrhalis
Protocol: as §1

[10] = tested on: H. influenzae; assay: MIC, H. influenzae; assay type: cell-based; conditions: Haemophilus influenzae
Protocol: as §1

[11] = tested on: S. aureus; assay: Microdilution MIC, S. aureus; assay type: cell-based
Protocol: as §1

[12] = tested on: E. faecalis; assay: MIC, E. faecalis; assay type: cell-based
Protocol: as §1

[13] = tested on: E. faecium; assay: MIC, E. faecium; assay type: cell-based; conditions: E. faecium Pen-R
Protocol: as §1

[14] = tested on: E. coli; assay: MBC, E. coli; assay type: cell-based; conditions: Escherichia coli
Text: as §3

[15] = tested on: K. pneumoniae; assay: MIC, K. pneumoniae; assay type: cell-based; conditions: Klebsiella pneumoniae
Protocol: as §1

[16] = tested on: M. luteus; assay: MIC, M. luteus; assay type: cell-based; conditions: Micrococcus luteus; M. luteus ATCC9341
Protocol: as §1

[17] = tested on: P. aeruginosa; assay: MIC, P. aeruginosa; assay type: cell-based; conditions: Pseudomonas aeruginosa
Protocol: as §1

[18] = tested on: myxopyronin-, rifampicin-, and streptolydigin-resistant S. aureus; assay: Growth (optical density at 595 nm) of drug-resistant S. aureus cultured with each drug (FIG. 22); assay type: cell-based; conditions: FIG. 22, absorbance at 595 nm
Protocol: FIG. 22 is a bar graph showing the growth of bacterial cultures, measured by its optical density as measured by absorbance of light at 595 nanometers, after bacteria resistant to myxopyronins, rifampicin, and streptolydigin were cultured in the presence of each of these drugs.
The site of action of the myxopyronins on RNA polymerase was investigated by assessing the growth of myxopyronin-, rifampicin-, and streptolydigin-resistant S. aureus in the presence of the 90/10 myxopyronin A/B mixture.

[19] = tested on: rifampicin susceptible and rifampicin resistant strains; assay: microbe, parasite or virus in culture
Protocol: The MIC is reported as a range between the concentration at which no growth is observed and the concentration of the dilution which immediately followed. Selected inhibitors from the RNA polymerase screen described above were tested for their ability to inhibit bacterial growth in a broth microdilution assay as follows. […] Dilution of antimicrobial agents is performed in a sterile, covered 96-well microliter plate with flat bottom wells (Costar #9017), and each well contains 100 μL of both +/-antimicrobial agent. The final concentrations of the small molecule antimicrobial agents are 100, 50, 25, 12.5, 6.25, 3.12, 1.56, 0.78, 0.39, 0.20, 0.10, and 0.05 μg/mL, respectively. Different dilutions are performed for natural product extracts. They are first diluted 100-fold with Mueller-Hinton broth. The final dilutions of the natural product extracts are 200, 400, 800, 1600, 3200, 6400, 12800, 25600, 51200, 1×105, 2×105, and 4 ×105-fold. A 1% DMSO (no-drug) row is prepared in Mueller-Hinton broth as a control for 100% growth on each plate. A Mueller-Hinton broth only with no bacteria growth is also included as a negative control for each plate. Ampicillin and rifampicin are used as positive controls against all bacterial strains in every experiment.
The overnight culture of a single colony is diluted in sterile Mueller-Hinton broth so that, after inoculation, each well contains approximately 5×10^5 CFU/mL. Within 15 minutes of preparation, […] of the adjusted inoculum suspension is added to the microliter plate. Each well is diluted with an equal volume of the antimicrobial agent/control substance diluted with sterile Mueller-Hinton broth. The inoculated microliter plate is incubated at 35° C. for 16-20 hours. The turbidity of each well is determined by measuring the absorbance at 595 nm on the BioRad Model 3550-UV microplate reader. The rows containing broth only (no cells) serve as a control, and the rows containing the titration of 1% DMSO serve as a control for 100% growth. The average of the broth only controls is subtracted from the average of each duplicate. This value is subsequently normalized to the average of the DMSO controls.

[20] = read-out: MIC E. coli*, Table II, mutant strain that has permeabilized cell wall
[21] = rifampicin-resistant S. aureus, read-out: MBC rifR-S. aureus
[22] = Table II, read-out: MBC E. coli

E. coli RNA polymerase, sequence (P0A8V2 whole entry): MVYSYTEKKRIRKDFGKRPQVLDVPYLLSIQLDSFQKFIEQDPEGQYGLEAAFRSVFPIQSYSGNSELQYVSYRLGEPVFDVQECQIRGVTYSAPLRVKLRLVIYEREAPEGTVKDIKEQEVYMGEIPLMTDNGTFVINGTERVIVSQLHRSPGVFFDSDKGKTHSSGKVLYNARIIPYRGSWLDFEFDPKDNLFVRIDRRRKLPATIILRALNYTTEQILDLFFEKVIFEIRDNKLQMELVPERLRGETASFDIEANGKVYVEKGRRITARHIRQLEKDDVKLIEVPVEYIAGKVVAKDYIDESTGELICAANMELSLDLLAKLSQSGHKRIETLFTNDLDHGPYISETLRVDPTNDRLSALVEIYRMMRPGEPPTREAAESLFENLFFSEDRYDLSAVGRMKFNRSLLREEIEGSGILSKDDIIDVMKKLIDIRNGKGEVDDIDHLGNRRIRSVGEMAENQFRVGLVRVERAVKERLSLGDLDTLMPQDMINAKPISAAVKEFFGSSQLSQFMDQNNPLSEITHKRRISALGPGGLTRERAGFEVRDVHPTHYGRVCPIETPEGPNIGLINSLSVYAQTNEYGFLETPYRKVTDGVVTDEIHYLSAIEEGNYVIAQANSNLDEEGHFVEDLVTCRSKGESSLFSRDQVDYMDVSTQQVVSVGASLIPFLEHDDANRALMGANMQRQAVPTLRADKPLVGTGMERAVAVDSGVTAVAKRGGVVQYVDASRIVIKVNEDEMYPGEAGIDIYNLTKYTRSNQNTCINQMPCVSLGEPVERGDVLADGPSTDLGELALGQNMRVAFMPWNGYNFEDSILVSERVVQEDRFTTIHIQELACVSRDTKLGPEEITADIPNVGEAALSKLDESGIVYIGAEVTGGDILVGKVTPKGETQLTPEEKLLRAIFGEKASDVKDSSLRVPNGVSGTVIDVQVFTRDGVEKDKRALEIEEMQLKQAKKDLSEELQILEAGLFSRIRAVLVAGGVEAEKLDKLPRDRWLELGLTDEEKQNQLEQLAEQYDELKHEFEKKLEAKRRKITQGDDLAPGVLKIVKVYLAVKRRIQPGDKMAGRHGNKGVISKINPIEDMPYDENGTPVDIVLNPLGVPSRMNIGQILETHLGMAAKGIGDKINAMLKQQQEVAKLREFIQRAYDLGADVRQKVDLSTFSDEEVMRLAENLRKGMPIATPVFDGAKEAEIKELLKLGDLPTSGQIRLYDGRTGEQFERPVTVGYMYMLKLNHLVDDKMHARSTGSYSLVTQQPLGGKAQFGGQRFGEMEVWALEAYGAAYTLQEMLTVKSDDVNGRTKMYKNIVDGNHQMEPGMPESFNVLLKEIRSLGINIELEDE
E. coli RNA polymerase, sequence (P0A8T7 whole entry): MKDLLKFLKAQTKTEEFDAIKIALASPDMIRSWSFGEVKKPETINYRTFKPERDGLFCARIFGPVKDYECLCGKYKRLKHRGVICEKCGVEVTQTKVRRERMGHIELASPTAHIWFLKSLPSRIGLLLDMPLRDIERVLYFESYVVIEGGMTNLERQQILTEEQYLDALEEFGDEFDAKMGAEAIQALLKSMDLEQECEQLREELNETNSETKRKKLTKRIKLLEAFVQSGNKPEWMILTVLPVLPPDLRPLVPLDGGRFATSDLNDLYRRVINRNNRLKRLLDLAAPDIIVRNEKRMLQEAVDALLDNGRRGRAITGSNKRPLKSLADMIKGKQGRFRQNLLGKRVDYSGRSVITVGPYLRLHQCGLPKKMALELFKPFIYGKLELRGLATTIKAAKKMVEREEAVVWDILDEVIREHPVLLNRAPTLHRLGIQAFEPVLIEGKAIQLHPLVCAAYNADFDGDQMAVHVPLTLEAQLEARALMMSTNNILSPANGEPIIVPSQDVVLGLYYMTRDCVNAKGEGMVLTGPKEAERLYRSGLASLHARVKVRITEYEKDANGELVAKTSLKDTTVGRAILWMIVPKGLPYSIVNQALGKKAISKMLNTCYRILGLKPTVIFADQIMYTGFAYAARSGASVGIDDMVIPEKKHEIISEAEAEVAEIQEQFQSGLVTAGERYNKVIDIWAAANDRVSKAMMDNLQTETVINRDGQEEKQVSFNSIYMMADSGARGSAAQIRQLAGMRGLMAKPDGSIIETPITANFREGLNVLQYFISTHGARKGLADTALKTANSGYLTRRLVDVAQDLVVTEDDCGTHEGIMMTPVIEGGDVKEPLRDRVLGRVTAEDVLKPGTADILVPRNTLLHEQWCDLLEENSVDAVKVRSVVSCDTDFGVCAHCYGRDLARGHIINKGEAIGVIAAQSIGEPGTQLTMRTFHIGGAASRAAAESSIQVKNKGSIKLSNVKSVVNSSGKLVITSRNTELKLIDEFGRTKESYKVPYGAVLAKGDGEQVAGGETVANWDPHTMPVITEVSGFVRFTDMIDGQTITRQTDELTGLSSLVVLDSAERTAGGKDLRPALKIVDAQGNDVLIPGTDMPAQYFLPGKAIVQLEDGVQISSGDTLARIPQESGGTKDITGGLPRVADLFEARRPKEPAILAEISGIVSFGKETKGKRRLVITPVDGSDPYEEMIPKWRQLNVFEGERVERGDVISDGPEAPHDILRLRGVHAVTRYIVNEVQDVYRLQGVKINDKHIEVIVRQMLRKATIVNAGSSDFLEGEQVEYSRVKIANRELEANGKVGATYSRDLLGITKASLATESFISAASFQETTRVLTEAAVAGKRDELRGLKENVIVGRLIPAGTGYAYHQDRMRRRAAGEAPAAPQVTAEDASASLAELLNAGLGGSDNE
E. coli RNA polymerase, sequence (P0A7Z4 whole entry partner): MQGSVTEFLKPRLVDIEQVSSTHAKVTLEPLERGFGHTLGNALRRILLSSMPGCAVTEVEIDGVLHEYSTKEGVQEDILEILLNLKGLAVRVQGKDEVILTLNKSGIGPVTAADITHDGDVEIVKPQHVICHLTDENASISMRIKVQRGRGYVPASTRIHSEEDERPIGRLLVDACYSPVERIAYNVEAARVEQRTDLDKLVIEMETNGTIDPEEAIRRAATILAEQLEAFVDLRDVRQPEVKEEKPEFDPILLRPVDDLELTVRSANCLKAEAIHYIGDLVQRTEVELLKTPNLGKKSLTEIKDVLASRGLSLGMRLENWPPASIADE
E. coli RNA polymerase, sequence (P0A800 whole entry partner): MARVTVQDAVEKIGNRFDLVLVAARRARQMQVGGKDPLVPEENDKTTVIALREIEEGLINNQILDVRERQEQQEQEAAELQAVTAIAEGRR

## CCCC/C(C)=C/C=C(\C)C(=O)c1c(O)cc(C(C)CC/C=C/NC(=O)OC)oc1=O (racemic) [MYXO B, (±)-myxopyronin B]
[1]; ATCC25922, Table III, E. coli ATCC25922, read-out: MIC
  MIC: > 64 µg/mL
[1]; Table III, E. coli parent (non-permeable), read-out: MIC
  MIC: > 64 µg/mL
[1]; Table III, E. coli permeable, read-out: MIC
  MIC: 1 µg/mL (≈ 2.32 µM)
[1]; [20]
  MIC: 0.4 µg/mL (≈ 0.927 µM)
[1]; Table II, read-out: MIC E. coli
  MIC: > 100 µg/mL
[2]
  Relative potency in the in vitro transcription assay using E. coli RNA polymerase: more potent molecule than A
  IC50: 1.85 µM
[3]
  IC50: 1.39 µM
[4]
  IC50: > 139 µM
[5]
  MIC: > 64 µg/mL
[6]; CC-R
  MIC: 1 µg/mL (≈ 2.32 µM)
[6]; CC-S
  MIC: 4 µg/mL (≈ 9.27 µM)
[7]; read-out: MBC S. aureus
  MBC: 0.4 µg/mL (≈ 0.927 µM)
[7]; [21]
  MBC: 0.4 µg/mL (≈ 0.927 µM)
[8]; S. pneumonia ATCC49619
  MIC: 8 µg/mL (≈ 18.5 µM)
[8]; S. pneumonia Pen I (MIC 0.12)
  MIC: 8 µg/mL (≈ 18.5 µM)
[8]; S. pneumonia Pen I (MIC 0.25)
  MIC: 8 µg/mL (≈ 18.5 µM)
[8]; S. pneumonia Pen I (MIC 1.0)
  MIC: 8 µg/mL (≈ 18.5 µM)
[8]; S. pneumonia Pen R (MIC 2.0)
  MIC: 16 µg/mL (≈ 37.1 µM)
[8]; S. pneumonia Pen R (MIC 4.0)
  MIC: 8 µg/mL (≈ 18.5 µM)
[8]; S. pneumonia Pen S (MIC <0.06)
  MIC: 8 µg/mL (≈ 18.5 µM)
[9]; M. catarrhalis beta lactamase negative
  MIC: 0.5 µg/mL (≈ 1.16 µM)
[9]; M. catarrhalis beta lactamase positive
  MIC: 1 µg/mL (≈ 2.32 µM)
[10]; ATCC49247, H. influenzae ATCC49247
  MIC: 2 µg/mL (≈ 4.63 µM)
[10]; H. influenzae non-typable
  MIC: 8 µg/mL (≈ 18.5 µM)
[11]; S. aureus MRSA, E-S, CC-S
  MIC: 1 µg/mL (≈ 2.32 µM)
[11]; Staphylococcus aureus, ATCC25923, S. aureus ATCC25923, read-out: MIC
  MIC: 1 µg/mL (≈ 2.32 µM)
[11]; Staphylococcus aureus, ATCC29213, S. aureus ATCC29213, read-out: MIC
  MIC: 1 µg/mL (≈ 2.32 µM)
[11]; Staphylococcus aureus, MRSA, S. aureus MRSA, E-R, CC-S, read-out: MIC
  MIC: 1 µg/mL (≈ 2.32 µM)
[11]; Staphylococcus aureus, Table II, read-out: MIC S. aureus
  MIC: 0.4 µg/mL (≈ 0.927 µM)
[11]; Staphylococcus aureus, Table II, rifampicin-resistant S. aureus, read-out: MIC rifR-S. aureus
  MIC: 0.2 µg/mL (≈ 0.463 µM)
[11]; up to, over the bacteria of Table II
  Fold more potent cell-based (growth inhibitory) activity than myxopyronin A: up to 75 fold
[12]; E. faecalis Pen-S, Vanco-S
  MIC: 16 µg/mL (≈ 37.1 µM)
[12]; Enterococcus faecalis, ATCC29212, E. faecalis ATCC29212, read-out: MIC
  MIC: 16 µg/mL (≈ 37.1 µM)
[12]; Enterococcus faecalis, E. faecalis Pen-R, Vanco-S, read-out: MIC
  MIC: 8 µg/mL (≈ 18.5 µM)
[12]; Enterococcus faecalis, E. faecalis Pen-S, Vanco-S, read-out: MIC
  MIC: 32 µg/mL (≈ 74.2 µM)
[13]; Vanco-R
  MIC: > 64 µg/mL
[13]; Vanco-S
  MIC: > 64 µg/mL
[13]; Enterococcus faecium, Vanco-R, read-out: MIC
  MIC: 64 µg/mL (≈ 148 µM)
[13]; Enterococcus faecium, Vanco-S, read-out: MIC
  MIC: 64 µg/mL (≈ 148 µM)
[14]; read-out: MBC E. coli*
  MBC: 0.2 µg/mL (≈ 0.463 µM)
[14]; [22]
  MBC: > 100 µg/mL
[15]
  MIC: > 64 µg/mL
[16]
  MIC: 8 µg/mL (≈ 18.5 µM)
[17]; P. aeruginosa ATCC27853
  MIC: > 64 µg/mL
[17]; P. aeruginosa, strain not named
  MIC: > 64 µg/mL

## CCC/C(C)=C/C=C(\C)C(=O)c1c(O)cc(C(C)CC/C=C/NC(=O)OC)oc1=O (racemic) [MYXO A, (±)-Myxopyronin A]
[1]; [20]
  MIC: 8 µg/mL (≈ 19.2 µM)
[2]
  Relative potency in the in vitro transcription assay using E. coli RNA polymerase: equally potent as the natural product mixtures
  IC50: 7.19 µM
[3]
  IC50: 24 µM
[4]
  IC50: > 144 µM
[7]; read-out: MBC S. aureus
  MBC: 15 µg/mL (≈ 35.9 µM)
[7]; [21]
  MBC: 15 µg/mL (≈ 35.9 µM)
[14]; read-out: MBC E. coli*
  MBC: > 30 µg/mL
[14]; [22]
  MBC: > 30 µg/mL

## CO[C@H]1/C=C/O[C@@]2(C)Oc3c(C)c(O)c4c(O)c(c(/C=N/N5CCN(C)CC5)c(O)c4c3C2=O)NC(=O)/C(C)=C\C=C\[C@H](C)[C@H](O)[C@@H](C)[C@@H](O)[C@@H](C)[C@H](OC(C)=O)[C@@H]1C [rifampicin]
[18]
  Growth of myxopyronin resistant S. aureus strain in the presence of the drug: inhibits growth
  Growth of rifampicin resistant S. aureus strain in the presence of the drug: continues to grow
  Growth of streptolydigin-resistant S. aureus strain in the presence of the drug: inhibited
[19]; read-out: MIC against resistant strains, background statement b17
  MIC: > 10 µM
[19]; read-out: MIC against rifampicin resistant strains, Example 11, b337
  MIC: > 100 µM
[19]; read-out: MIC against susceptible strains, Example 11, b337
  MIC: 10 µM (≈ 8.23 µg/mL)
[19]; read-out: MIC against susceptible strains, background statement b17
  MIC: ~0.01 µM (≈ 0.00823 µg/mL)

## CNC(=O)[C@@H](C)[C@H]1C(=O)/C(=C(O)/C=C/C(C)=C/[C@@H](C)[C@H]2O[C@@]3(C)O[C@H](C=C[C@@]34CO4)[C@@H]2C)C(=O)N1[C@@H]1CC[C@H](O)[C@H](C)O1 [streptolydigin]
[18]
  Growth of myxopyronin resistant S. aureus strain in the presence of the drug: inhibits growth
  Growth of rifampicin resistant S. aureus strain in the presence of the drug: inhibits growth
  Growth of streptolydigin-resistant S. aureus strain in the presence of the drug: continues to grow
